Experimental data reported in US20240225053A9 (priority 2021, published 2024).
Like-named read-outs stand apart in the source and are kept apart here.

Experiments:
Assay type in all cases: cell-based
[1] = test system: Clostridium perfringens ATCC10873; design: key to Settling: Good: Settling effect observed; Poor: No settling effect observed; conditions: for Settling: 37° C., 8 hours
[2] = test system: Clostridium perfringens ATCC10873; conditions: for Shape: 8 hours
[3] = test system: Clostridium perfringens SM101 (CPE toxin producer); design: key to Agglomeration: Good: Agglomeration effect observed; Poor: No agglomeration effect observed; conditions: 500 mM
[4] = test system: Clostridium perfringens CNEOP004 (netB toxin producer); design: key to Agglomeration: Good: Agglomeration effect observed; Poor: No agglomeration effect observed; conditions: 500 mM
[5] = test system: Clostridium perfringens ATCC10873; design: unit not given here; conditions: bacterial cells, 500 mM, 8 hours, diluted 100 times
[6] = test system: Clostridium perfringens SM101; design: unit not given here; conditions: bacterial cells, 500 mM, 8 hours, diluted 100 times
[7] = test system: Clostridium perfringens CNEOP004; design: unit not given here; conditions: bacterial cells, 500 mM, 8 hours, diluted 100 times
[8] = test system: Lactobacillus casei ATCC393; design: key to Agglomeration: Good: Those in which agglomeration observed under upright microscope; Poor: Those in which no agglomeration observed under upright microscope
[9] = test system: Bifidobacterium animalis JCM1190; design: key to Agglomeration: Good: Those in which agglomeration observed under upright microscope; Poor: Those in which no agglomeration observed under upright microscope
[10] = test system: Salmonella enterica IAM1648; design: key: Good: Those in which agglomeration observed under upright microscope; Poor: Those in which no agglomeration observed under upright microscope
Escherichia coli MG1655 = test system: Escherichia coli MG1655; design: key: Good: Those in which agglomeration observed under upright microscope; Poor: Those in which no agglomeration observed under upright microscope
[11] = test system: mixed bacterial cells of Clostridium perfringens ATCC10873, Salmonella enterica IAM1648 and E. coli MG1655; conditions: 500 mM in combination with Arabic Gum 1%; OD660 about 2.0, 37° C.
[12] = test system: Clostridium perfringens strain SM101; conditions: KCl 500 mM
[13] = test system: Clostridium perfringens ATCC10873; design: key: Good: Agglomeration effect observed; Poor: No agglomeration effect observed
[14] = test system: Clostridium perfringens ATCC10873; design: key: Good: Those in which agglomeration observed under upright microscope; Poor: Those in which no agglomeration observed under upright microscope; conditions: Table 4, 500 mM
[15] = absence of AG, Example 2 strains

## [Cl-].[K+] [KCl]
[1]; 100 mM, without AG
  Settling: Good
[1]; 500 mM, w/AG 1%
  Settling: Good
[1]; 500 mM, without AG
  Settling: Good
[1]; absence of AG, optical density about 2.0 at 660 nm
  Concentration required for settling / at which settling was confirmed: ≥ 100 mM
[2]; 100 mM, without AG
  Shape: Spheroidal
[2]; 500 mM, w/AG 1%
  Shape: Spheroidal
[2]; 500 mM, without AG
  Shape: Spheroidal
[2]; [15]
  Agglomeration (text): did not agglomerate
  Shape of the bacterial cells: changed from bacilli to cocci
[2]; coexistence with AG, Example 2 strains
  Agglomeration (text): agglomerated in the state of cocci
[3]; w/AG 1%, 8 hours
  Shape: Spheroidal
[3]; without AG, 8 hours
  Shape: Spheroidal
[3]; Table 2-2, w/AG 1%, 8 hours
  Agglomeration: Good
[3]; Table 2-2, without AG, 8 hours
  Agglomeration: Poor
[3]; Table 3-2, w/AG 1%
  Agglomeration: Good
[3]; Table 3-2, without AG
  Agglomeration: Poor
[4]; w/AG 1%, 8 hours
  Shape: Spheroidal
[4]; without AG, 8 hours
  Shape: Spheroidal
[4]; Table 2-3, w/AG 1%, 8 hours
  Agglomeration: Good
[4]; Table 2-3, without AG, 8 hours
  Agglomeration: Poor
[4]; Table 3-3, w/AG 1%
  Agglomeration: Good
[4]; Table 3-3, without AG
  Agglomeration: Poor
[5]; W/AG 1%
  Zeta potential: −10.2
[5]; without AG
  Zeta potential: −29.0
[6]; w/AG 1%
  Zeta potential: −26.5
[6]; without AG
  Zeta potential: −30.2
[7]; w/AG 1%
  Zeta potential: −23
[7]; without AG
  Zeta potential: −25
[8]
  Agglomeration: Poor
  Agglomeration effect: not exerted
[9]
  Agglomeration: Poor
  Agglomeration effect: not exerted
[10]
  Agglomeration: Poor and Good
Escherichia coli MG1655
  Agglomeration: Poor and Good
[11]
  Agglomeration of the three types of enteric bad bacteria: can quickly agglomerate
[12]
  Nature of cocci (vegetative cells or spores) under phase-contrast microscope: not spores
[13]; Table 2-1, 100 mM, without AG, 8 hours
  Agglomeration: Poor
[13]; Table 2-1, 500 mM, w/AG 1%, 8 hours
  Agglomeration: Good
[13]; Table 2-1, 500 mM, without AG, 8 hours
  Agglomeration: Poor
[13]; Table 3-1, 500 mM, W/AG 1%
  Agglomeration: Good
[13]; Table 3-1, 500 mM, without AG
  Agglomeration: Poor
[14]; W/AG 1%
  Agglomeration: Good
[14]; without AG
  Agglomeration: Poor
